Assay [1] has as its system DLD1 NRF2-WT. To be noted: 72 h; CellTiter-Glo viability. In a few lines: (§1)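 Isogenic DLD1 colorectal cancer cells, either NRF2 wild-type or CRISPR gain-of-function, were grown in DMEM with 10% FBS. They were exposed in 384-well plates to library compounds at 5 concentrations spanning a 10,000-fold range. After 72 h, viability was read by CellTiter-Glo on a Pherastar FS reader and normalised to vehicle wells and 100-μM positive-control wells. EC50 and drug sensitivity score (a normalised area under the curve) came from four-parameter logistic dose-response fits.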
Background: ATP-based viability assays read luminescence as a measure of living cells.

For assay [2], the system named is DLD1 NRF2-GOF. In words: TC50 cytotoxicity; higher = less toxic. To be noted: 72 h; CellTox Green cytotoxicity. The essentials:
(§2)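 After growth in DMEM with 10% FBS, NRF2 wild-type and CRISPR-edited isogenic DLD1 cells were seeded in 384-well plates and given library compounds at 5 concentrations across a 10,000-fold range. Fluorescence from CellTox Green was taken on a Pherastar FS reader after 72 h and normalised against vehicle wells and 100-μM positive-control wells. From logistic dose-response fits of cytotoxicity came the TC50 and the drug sensitivity score, a normalised area under the curve.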

In assay [3] the test system is DLD1 NRF2-WT. Put plainly: TC50 cytotoxicity; higher = less toxic. The conditions noted are these: 72 h; CellTox Green cytotoxicity. The essentials: as §2
The test system of assay [4] is DLD1 NRF2-GOF. Put plainly: drug sensitivity score (DSS) cytotoxicity (DSS score); higher = more toxic; extreme values may be limits of the assay. To be noted: 72 h; CellTox Green cytotoxicity. In a few lines: as §2
Assay [5] deals with DLD1 NRF2-WT. The assay is described as above. To be noted: 72 h; CellTox Green cytotoxicity. In a few lines:
as §2

The subject of assay [6] is DLD1 NRF2-GOF. In words: drug sensitivity score (DSS) viability (DSS score); higher = more sensitive; extreme values may be limits of the assay. To be noted: 72 h; CellTiter-Glo viability. In a few lines:
as §1

In assay [7] the test system is DLD1 NRF2-WT. The description is as above. The conditions noted are these: 72 h; CellTiter-Glo viability. The essentials: as §1

In the assay on DLD1 NRF2-WT [1], `CC1(C)NC(=O)N(c2ccc([N+](=O)[O-])c(C(F)(F)F)c2)C1=O` [Nilutamide] had an EC50 viability of over 10000 nM. The TC50 cytotoxicity in the assay with DLD1 NRF2-GOF [2] and in the assay on DLD1 NRF2-WT [3] was over 10000 nM each time. Besides, the drug sensitivity score in the assay with DLD1 NRF2-GOF [4] came to 0; with DLD1 NRF2-WT [5] it was 0; in the assay on DLD1 NRF2-GOF [6] it was 3.6; with DLD1 NRF2-WT [7], 0.

For `C[C@H]1C[C@@H]2[C@H]([C@@H](O)C[C@@]3(C)[C@H]2CC[C@]3(O)C(=O)CO)[C@@]2(C)C=CC(=O)C=C12` [Methylprednisolone], the TC50 cytotoxicity in the assay with DLD1 NRF2-GOF [2] and in the assay with DLD1 NRF2-WT [3] was over 10000 nM each time. For the same compound, the drug sensitivity score with DLD1 NRF2-GOF [4] worked out at 0; with DLD1 NRF2-WT [5], 0; in the assay on DLD1 NRF2-GOF [6] it was 2.9.

As to `FC(F)(F)c1ccc(/C=C/c2nc(COc3ccc(CCCCn4ccnn4)cc3)co2)cc1` [Mubritinib], the EC50 viability in the assay on DLD1 NRF2-WT [1] is 33.4 nM. Besides, the TC50 cytotoxicity in the assay with DLD1 NRF2-GOF [2] and with DLD1 NRF2-WT [3] was over 1000 nM each time. Moreover, the drug sensitivity score amounted to 0 in the assay with DLD1 NRF2-GOF [4], 0 in the assay with DLD1 NRF2-WT [5], 2.4 in the assay with DLD1 NRF2-GOF [6] and 7.4 in the assay on DLD1 NRF2-WT [7].

Turning to `CCc1c(C(=O)C(N)=O)c2c(OCC(=O)O)cccc2n1Cc1ccccc1` [Varespladib], the EC50 viability in the assay with DLD1 NRF2-WT [1] worked out at 1220 nM. Besides, the TC50 cytotoxicity in the assay with DLD1 NRF2-GOF [2] and with DLD1 NRF2-WT [3] was over 10000 nM throughout. Moreover, the drug sensitivity score was found to be 0 in the assay with DLD1 NRF2-GOF [4], 0 with DLD1 NRF2-WT [5], 0.8 in the assay on DLD1 NRF2-GOF [6] and 3.9 in the assay on DLD1 NRF2-WT [7].

Regarding `OC[C@H]1O[C@@H](n2cnc3c2N=CNC[C@H]3O)C[C@@H]1O` [Pentostatin], the EC50 viability in the assay on DLD1 NRF2-WT [1] was determined as 1860 nM. Moreover, the drug sensitivity score was found to be 1.6 in the assay with DLD1 NRF2-GOF [6] and 2.5 in the assay with DLD1 NRF2-WT [7].

For `C[C@@H](Nc1cc(F)cc(F)c1)c1cc(C(=O)N(C)C)cc2c(=O)cc(N3CCOCC3)oc12` [AZD-8186], the EC50 viability with DLD1 NRF2-WT [1] was determined as 59.8 nM. Further, the TC50 cytotoxicity in the assay with DLD1 NRF2-GOF [2] and in the assay on DLD1 NRF2-WT [3] was over 1000 nM each time. Further, the drug sensitivity score with DLD1 NRF2-GOF [4] is 0; in the assay on DLD1 NRF2-WT [5], 0; in the assay on DLD1 NRF2-GOF [6], 5.2; in the assay on DLD1 NRF2-WT [7] it was 3.6.

`Cc1cc(F)c(C(=O)Nc2cccc(-c3nncn3C(C)C)n2)cc1-n1cnc(C2CC2)c1` [Selonsertib] registered an EC50 viability in the assay with DLD1 NRF2-WT [1] of 13.3 nM. Besides, the TC50 cytotoxicity with DLD1 NRF2-GOF [2] and with DLD1 NRF2-WT [3] was over 1000 nM in each case. Also, the drug sensitivity score in the assay on DLD1 NRF2-GOF [4] amounted to 0; in the assay with DLD1 NRF2-WT [5], 0; in the assay on DLD1 NRF2-GOF [6], 3.7; with DLD1 NRF2-WT [7], 4.9.

For the compound `C=CC(=O)Nc1cccc(Oc2nc(Nc3ccc(N4CCN(C)CC4)cc3)nc3ccsc23)c1` [Olmutinib], the TC50 cytotoxicity in the assay on DLD1 NRF2-GOF [2] and in the assay with DLD1 NRF2-WT [3] was over 1000 nM in each case. Also, the drug sensitivity score with DLD1 NRF2-GOF [4] was 0; in the assay with DLD1 NRF2-WT [5], 0; in the assay on DLD1 NRF2-GOF [6], 2.8; in the assay with DLD1 NRF2-WT [7] it was 2.6.

In the assay on DLD1 NRF2-WT [1], `CO[C@H]1C[C@@H]2CC[C@@H](C)[C@@](O)(O2)C(=O)C(=O)N2CCCC[C@H]2C(=O)O[C@H]([C@H](C)C[C@@H]2CC[C@@H](OCCO)[C@H](OC)C2)CC(=O)[C@H](C)/C=C(\C)[C@@H](O)[C@@H](OC)C(=O)[C@H](C)C[C@H](C)/C=C/C=C/C=C/1C` [Everolimus] showed an EC50 viability of 11.7 nM. Moreover, the TC50 cytotoxicity with DLD1 NRF2-GOF [2] and with DLD1 NRF2-WT [3] was over 100 nM in each case. Further, the drug sensitivity score in the assay on DLD1 NRF2-GOF [4] came to 0; in the assay on DLD1 NRF2-WT [5] it was 0; in the assay on DLD1 NRF2-GOF [6] it was 2.5; with DLD1 NRF2-WT [7], 4.7.

`CNC(=O)c1cc(COc2nnc(Nc3ccc(Cl)cc3)c3ccoc23)ccn1` [Telatinib]: the TC50 cytotoxicity in the assay on DLD1 NRF2-GOF [2] and with DLD1 NRF2-WT [3] was over 10000 nM throughout. For the same compound, the drug sensitivity score in the assay on DLD1 NRF2-GOF [4] was found to be 0; in the assay on DLD1 NRF2-WT [5] it was 0; with DLD1 NRF2-GOF [6], 2.6; in the assay with DLD1 NRF2-WT [7] it was 6.9.

Compound `CS(=O)(=O)c1ccc(-c2cnc(N)c(C(=O)Nc3ccccc3)n2)cc1` [VE-821] had an EC50 viability with DLD1 NRF2-WT [1] of over 10000 nM. Also, the TC50 cytotoxicity in the assay on DLD1 NRF2-GOF [2] and with DLD1 NRF2-WT [3] was over 10000 nM each time. For the same compound, the drug sensitivity score turned out to be 0 in the assay on DLD1 NRF2-GOF [4], 0 in the assay on DLD1 NRF2-WT [5], 0.9 with DLD1 NRF2-GOF [6] and 0.2 in the assay with DLD1 NRF2-WT [7].

(Values after the supplement of paper PMC7600603.)
